Numbering of substitutions follows the chain as printed.
What was measured:
[1] = biological target: T1, WT NS (neuroserpin) (Homo sapiens, UniProt Q99574, H138C); test: Bis-ANS fluorescence, excitation […] nm; format: binding; conditions: 2 uM protein, Bis-ANS 1:5 ratio (10 uM), 25 °C, surface hydrophobicity probe
T1 construct: gene SERPINI1; N-terminal 6-His tag, pET28b, expressed in E. coli BL21(DE3), monomeric
T1 sequence (Q99574 17-410 H138C): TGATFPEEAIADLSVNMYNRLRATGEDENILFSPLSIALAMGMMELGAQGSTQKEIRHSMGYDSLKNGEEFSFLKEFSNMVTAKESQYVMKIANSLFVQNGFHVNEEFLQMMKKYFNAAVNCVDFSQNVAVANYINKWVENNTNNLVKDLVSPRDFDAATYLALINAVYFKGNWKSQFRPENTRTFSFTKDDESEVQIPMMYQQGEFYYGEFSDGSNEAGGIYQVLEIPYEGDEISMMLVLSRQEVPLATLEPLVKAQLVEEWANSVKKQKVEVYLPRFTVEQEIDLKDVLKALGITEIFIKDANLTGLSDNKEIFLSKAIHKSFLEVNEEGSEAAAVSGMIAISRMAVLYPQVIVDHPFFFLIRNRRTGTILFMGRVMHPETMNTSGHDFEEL

[2] = biological target: T2, WT NS (neuroserpin) (Homo sapiens, UniProt Q99574, H138C/W154C); test: Bis-ANS fluorescence, excitation […] nm; format: binding; conditions: 2 uM protein, Bis-ANS 1:5 ratio (10 uM), 25 °C, surface hydrophobicity probe
T2 construct: gene SERPINI1; N-terminal 6-His tag, pET28b, expressed in E. coli BL21(DE3), monomeric
T2 sequence (Q99574 17-410 H138C/W154C): T1 sequence (Q99574 17-410 H138C) with W138C

## O=S(=O)(O)c1cccc2c(-c3ccc(Nc4ccccc4)c4c(S(=O)(=O)O)cccc34)ccc(Nc3ccccc3)c12 [Bis-ANS, 4,4-Bis-1-anilino naphthalene 8-sulfonate]
[1]
  Bis-ANS fluorescence, excitation 390 nm: More hydrophobic exposure was observed due to increase Bis-ANS fluorescence in the H138C variant
[2]
  Bis-ANS fluorescence, excitation 390 nm: The double variant showed a decreased fluoroscence emission intensity, and a very high surface hydrophobicity
